Data set [1] is described as follows: ASSAY (III) ThT fibrillation assay for physical stability. Format: physicochemical. The method in brief: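 Formulations with 1 μM ThT, pH adjusted as required, incubated at 37 °C with 960 rpm orbital shaking; fluorescence (ex 444/em 485 nm) read every 20 min. Fibrillation reported as mean ThT fluorescence ± SD of 4–8 replicates at time points; polypeptide concentration measured by reverse-phase HPLC before and after, post-centrifugation.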

Data set [2] in a line: ASSAY (IV) determination of solubility. Format: physicochemical. The method in brief: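 Polypeptide stock in water ([…]) was mixed 1:1 with 100 mM buffers: glycylglycine at pH 3.0, 4.0, 5.0 and bistrispropane at pH 6.0, 6.5, 7.0, 7.5, 8.0. After 18 hours at room temperature, samples were centrifuged and polypeptide concentration measured by UPLC.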
The target of data set [3] is T1, rat amylin receptor (rat calcitonin receptor + rat RAMP 3) (Rattus norvegicus, UniProt P32214+Q9JJ73).
T1 construct: expressed in transfected cells; host or cells: BHK tk'ts 13 (transient, FuGENE 6), membranes
T1 sequence (P32214 25-479 isoform P32214-2 limits assumed): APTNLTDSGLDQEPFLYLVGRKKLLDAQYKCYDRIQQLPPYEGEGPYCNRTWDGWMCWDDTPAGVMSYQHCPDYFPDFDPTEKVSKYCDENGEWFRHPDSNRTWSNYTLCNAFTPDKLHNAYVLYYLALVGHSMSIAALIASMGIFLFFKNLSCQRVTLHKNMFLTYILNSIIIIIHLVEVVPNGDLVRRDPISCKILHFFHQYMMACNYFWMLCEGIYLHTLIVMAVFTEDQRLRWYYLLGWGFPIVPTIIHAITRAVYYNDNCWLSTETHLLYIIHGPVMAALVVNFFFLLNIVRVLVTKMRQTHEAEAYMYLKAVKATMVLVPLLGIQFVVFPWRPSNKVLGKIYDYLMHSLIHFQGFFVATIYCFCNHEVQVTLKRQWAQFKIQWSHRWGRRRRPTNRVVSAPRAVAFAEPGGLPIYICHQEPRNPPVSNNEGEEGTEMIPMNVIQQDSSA
T1 sequence (Q9JJ73 23-147 partner): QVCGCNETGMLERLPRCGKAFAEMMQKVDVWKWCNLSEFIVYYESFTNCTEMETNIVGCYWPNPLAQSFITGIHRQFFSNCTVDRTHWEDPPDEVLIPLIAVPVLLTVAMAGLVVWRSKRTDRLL
Put plainly: ASSAY (VI) binding to the rat amylin receptor. The conditions noted are these: for pIC50: binding to rat amylin receptor, read-out: rAmylin-R bind IC50. The method in brief:
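Binding to the rat amylin receptor was determined with membrane preparations. The receptor was expressed by transiently transfecting BHK tk′ts 13 cells with rat calcitonin receptor, using FuGENE® 6 (Roche) according to the manufacturer's recommendations. Roughly 48 hours later the cells were harvested and their membranes isolated.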

[4] abbreviates: bistrispropane buffer, pH 6.5, read-out: Solubility pH 6.5 Concentration.
The mark [5] stands for this setting: bistrispropane buffer, pH 7.5, read-out: Solubility pH 7.5 Concentration.
The mark [6] stands for this setting: bistrispropane buffer, pH 6.0, read-out: Solubility pH 6.0 Concentration.
The mark [7] stands for this setting: bistrispropane buffer, pH 7.0, read-out: Solubility pH 7.0 Concentration.
[8] abbreviates: bistrispropane buffer, pH 8.0, read-out: Solubility pH 8.0 Concentration.
The mark [9] stands for this setting: glycylglycine buffer, pH 3.0, read-out: Solubility pH 3.0 Concentration.
Where [10] appears, read: glycylglycine buffer, pH 4.0, read-out: Solubility pH 4.0 Concentration.
Where [11] appears, read: glycylglycine buffer, pH 5.0, read-out: Solubility pH 5.0 Concentration.
Setting [12] is: Table 7, rat binding selectivity, rCTR IC50 / rAmylin-R IC50.
Setting [13] is: Table 7a (preferred compounds), rat binding selectivity, rCTR IC50 / rAmylin-R IC50.
Setting [14] is: ratio of rCTR bind IC50 to rAmylin-R bind IC50.

pIC50: −log10 of the molar value. In brackets after ≈: the same amount, converted by molar mass. Read-outs that look alike come from different tables or passages of the source. Numbered stars: 1 amine (or outer) side, 2 acyl side, 3 side chain; on linkers, the order of the positions; unused ones are H or OH. Bridge positions count the residues as written; N and C are the ends. Peptide text beside a SMILES is read from it. * marks the point of attachment. C20 diacid = O=C(O)CCCCCCCCCCCCCCCCCCC(=O)*; γGlu = O=C(O)[C@H](CCC(=O)[*:2])N[*:1]

As usually defined, the pIC50 is the IC50 on a negative log10 scale, so that one unit is a factor of ten. As for `CC[C@H](C)[C@H](NC(=O)[C@H](C)NC(=O)CNC(=O)[C@H](Cc1ccccc1)NC(=O)[C@H](CC(N)=O)NC(=O)[C@@H]1CCCN1C(=O)[C@H](CO)NC(=O)[C@H](CO)NC(=O)[C@H](Cc1c[nH]cn1)NC(=O)[C@H](CCCNC(=N)N)NC(=O)[C@H](CC(C)C)NC(=O)[C@H](Cc1ccccc1)NC(=O)[C@H](CCC(=O)O)NC(=O)[C@H](C)NC(=O)[C@H](CC(C)C)NC(=O)[C@H](CCCNC(=N)N)NC(=O)[C@H](CCC(N)=O)NC(=O)[C@@H](NC(=O)[C@H](C)NC(=O)[C@@H]1CSSC[C@H](NC(=O)[C@H](CCCCN)NC(=O)CC[C@H](NC(=O)CCCCCCCCCCCCCCCCCCC(=O)O)C(=O)O)C(=O)N[C@@H](CC(N)=O)C(=O)N[C@@H]([C@@H](C)O)C(=O)N[C@@H](C)C(=O)N[C@@H]([C@@H](C)O)C(=O)N1)[C@@H](C)O)C(=O)N1CCC[C@H]1C(=O)N[C@@H](CO)C(=O)N[C@@H](CO)C(=O)N[C@H](C(=O)N[C@@H](CC(N)=O)C(=O)N[C@H](C(=O)NCC(=O)N[C@@H](CO)C(=O)N[C@@H](CCC(=O)O)C(=O)N[C@H](C(=O)N[C@@H](Cc1ccc(O)cc1)C(N)=O)[C@@H](C)O)C(C)C)[C@@H](C)O` [Example 22] ({C20 diacid-γGlu}-KCNTATCATQRLAEFLRHSSPNFGAIPSSTNVGSETY-NH2; disulfide 2-7), the “ThT pH 4.0 lag time (h)” value in data set [1] came out at 45 h. For the same compound, the solubility at 18 h is at least 200 µM in data set [2] (setting [4]); at least 200 µM in data set [2] (setting [5]); 195 µM (≈ 860 µg/mL) in data set [2] (setting [6]); at least 200 µM in data set [2] (setting [7]); at least 200 µM in data set [2] (setting [8]); at least 200 µM in data set [2] (setting [9]). The solubility at 18 h in data set [2] (setting [10]) and in data set [2] (setting [11]) was at least 200 µM throughout. Moreover, in data set [3] (Table 7), the pIC50 is 8.66. The “Ratio rCT/rAmylin binding” value in data set [3] (setting [12]), in data set [3] (setting [13]) and in data set [3] (setting [14]) was 28.5 throughout.

On to `CC[C@H](C)[C@H](NC(=O)[C@H](C)NC(=O)CNC(=O)[C@H](Cc1ccccc1)NC(=O)[C@H](CC(N)=O)NC(=O)[C@@H]1CCCN1C(=O)[C@H](CO)NC(=O)[C@H](CO)NC(=O)[C@H](Cc1c[nH]cn1)NC(=O)[C@H](CCCNC(=N)N)NC(=O)[C@H](CC(C)C)NC(=O)[C@H](Cc1ccccc1)NC(=O)[C@H](CC(N)=O)NC(=O)[C@H](C)NC(=O)[C@H](CC(C)C)NC(=O)[C@H](CCCNC(=N)N)NC(=O)[C@H](CCC(N)=O)NC(=O)[C@@H](NC(=O)[C@H](C)NC(=O)[C@@H]1CSSC[C@H](NC(=O)[C@H](CCCCN)NC(=O)CC[C@H](NC(=O)CCCCCCCCCCCCCCCCCCC(=O)O)C(=O)O)C(=O)N[C@@H](CC(N)=O)C(=O)N[C@@H]([C@@H](C)O)C(=O)N[C@@H](C)C(=O)N[C@@H]([C@@H](C)O)C(=O)N1)[C@@H](C)O)C(=O)N1CCC[C@H]1C(=O)N[C@@H](CO)C(=O)N[C@@H](CO)C(=O)N[C@H](C(=O)N[C@@H](CC(N)=O)C(=O)N[C@H](C(=O)NCC(=O)N[C@@H](CO)C(=O)N[C@@H](CCC(=O)O)C(=O)N[C@H](C(=O)N[C@@H](Cc1ccc(O)cc1)C(N)=O)[C@@H](C)O)C(C)C)[C@@H](C)O` [Example 23], for which the “ThT pH 4.0 lag time (h)” value in data set [1] is 3 h. The solubility at 18 h in data set [2] (setting [4]), in data set [2] (setting [5]), in data set [2] (setting [6]), in data set [2] (setting [7]), in data set [2] (setting [8]) and in data set [2] (setting [9]) was at least 200 µM throughout. Also, the solubility at 18 h in data set [2] (setting [10]) and in data set [2] (setting [11]) was at least 200 µM each time. The pIC50 in data set [3] (Table 7) is 8.95. Moreover, the “Ratio rCT/rAmylin binding” value in data set [3] (setting [12]), in data set [3] (setting [13]) and in data set [3] (setting [14]) was 71.3 in each case.

`CC[C@H](C)[C@H](NC(=O)[C@H](C)NC(=O)CNC(=O)[C@H](Cc1ccccc1)NC(=O)[C@H](CC(N)=O)NC(=O)[C@@H]1CCCN1C(=O)[C@H](CO)NC(=O)[C@H](CO)NC(=O)[C@H](Cc1c[nH]cn1)NC(=O)[C@H](CCCNC(=N)N)NC(=O)[C@H](CC(C)C)NC(=O)[C@H](Cc1ccccc1)NC(=O)[C@H](CC(N)=O)NC(=O)[C@H](C)NC(=O)[C@H](CC(C)C)NC(=O)[C@H](CCCNC(=N)N)NC(=O)[C@H](CCC(N)=O)NC(=O)[C@@H](NC(=O)[C@H](C)NC(=O)[C@@H]1CSSC[C@H](NC(=O)[C@H](CCCCN)NC(=O)COCCOCCNC(=O)COCCOCCNC(=O)CC[C@H](NC(=O)CCCCCCCCCCCCCCCCCCC(=O)O)C(=O)O)C(=O)N[C@@H](CC(N)=O)C(=O)N[C@@H]([C@@H](C)O)C(=O)N[C@@H](C)C(=O)N[C@@H]([C@@H](C)O)C(=O)N1)[C@@H](C)O)C(=O)N1CCC[C@H]1C(=O)N[C@@H](CO)C(=O)N[C@@H](CO)C(=O)N[C@H](C(=O)N[C@@H](CC(N)=O)C(=O)N[C@H](C(=O)NCC(=O)N[C@@H](CO)C(=O)N[C@@H](CC(N)=O)C(=O)N[C@H](C(=O)N[C@@H](Cc1ccc(O)cc1)C(N)=O)[C@@H](C)O)C(C)C)[C@@H](C)O` [Example 24]: the “ThT pH 4.0 lag time (h)” value in data set [1] is recorded as 34 h. Further, the solubility at 18 h in data set [2] (setting [4]), in data set [2] (setting [5]), in data set [2] (setting [6]), in data set [2] (setting [7]), in data set [2] (setting [8]) and in data set [2] (setting [9]) was at least 200 µM throughout. In addition, the solubility at 18 h in data set [2] (setting [10]) and in data set [2] (setting [11]) was at least 200 µM each time. For the same compound, the pIC50 in data set [3] (Table 7) is 8.52. The “Ratio rCT/rAmylin binding” value in data set [3] (setting [12]), in data set [3] (setting [13]) and in data set [3] (setting [14]) was 116.3 throughout.

Turning to `CC[C@H](C)[C@H](NC(=O)[C@H](C)NC(=O)CNC(=O)[C@H](Cc1ccccc1)NC(=O)[C@H](CC(N)=O)NC(=O)[C@@H]1CCCN1C(=O)[C@H](CO)NC(=O)[C@H](CO)NC(=O)[C@H](Cc1c[nH]cn1)NC(=O)[C@H](CCCNC(=N)N)NC(=O)[C@H](CC(C)C)NC(=O)[C@H](Cc1ccccc1)NC(=O)[C@H](CC(N)=O)NC(=O)[C@H](C)NC(=O)[C@H](CC(C)C)NC(=O)[C@H](CCCNC(=N)N)NC(=O)[C@H](CCC(N)=O)NC(=O)[C@@H](NC(=O)[C@H](C)NC(=O)[C@@H]1CSSC[C@H](NC(=O)[C@@H](N)CCCCNC(=O)COCCOCCNC(=O)COCCOCCNC(=O)CC[C@H](NC(=O)CCCCCCCCCCCCCCCCCCC(=O)O)C(=O)O)C(=O)N[C@@H](CC(N)=O)C(=O)N[C@@H]([C@@H](C)O)C(=O)N[C@@H](C)C(=O)N[C@@H]([C@@H](C)O)C(=O)N1)[C@@H](C)O)C(=O)N1CCC[C@H]1C(=O)N[C@@H](CO)C(=O)N[C@@H](CO)C(=O)N[C@H](C(=O)N[C@@H](CC(N)=O)C(=O)N[C@H](C(=O)NCC(=O)N[C@@H](CO)C(=O)N[C@@H](CCC(=O)O)C(=O)N[C@H](C(=O)N[C@@H](Cc1ccc(O)cc1)C(N)=O)[C@@H](C)O)C(C)C)[C@@H](C)O` [Example 25], in data set [1], the “ThT pH 4.0 lag time (h)” value was found to be 2 h. The solubility at 18 h in data set [2] (setting [4]), in data set [2] (setting [5]), in data set [2] (setting [6]), in data set [2] (setting [7]), in data set [2] (setting [8]) and in data set [2] (setting [9]) was at least 200 µM throughout. In addition, the solubility at 18 h in data set [2] (setting [10]) and in data set [2] (setting [11]) was at least 200 µM in each case. For the same compound, the pIC50 in data set [3] (Table 7) was 8.46. Besides, the “Ratio rCT/rAmylin binding” value in data set [3] (setting [12]), in data set [3] (setting [13]) and in data set [3] (setting [14]) was 37.7 in each case.

Values taken from patent US9023789B2, “Amylin analogs and pharmaceutical compositions thereof” (Novo Nordisk A/S, priority 2012, dated 2015).
